pEC50, pIC50: −log10 of the molar value. Read-outs that look alike come from different tables or passages of the source.
Key:
HIV-1 wild type = assay: microbe, parasite or virus in culture; assay type: cell-based; conditions: for pEC50: wild type, read-out: EC50 WT RT
[1] = tested on: HIV-1 double mutant K103N/Y181C; assay: microbe, parasite or virus in culture; assay type: cell-based; conditions: for pEC50: double mutant K103N/Y181C, read-out: EC50 K103N/Y181C; for EC50: Human immunodeficiency virus 1, read-out: EC50 K103N/Y181C (nM)
[2] = molecular target: T1, HIV-1 RT double mutant K103N/Y181C (Human immunodeficiency virus type 1 group M subtype B, UniProt P03366, K702N/Y780C); assay: biochemical
T1 construct: HIV-1 wild type reverse transcriptase as well as the clinically significant double mutant K103N/Y181C
Protocol: (§1) Utilizing the Reverse Transcriptase (RT) Assay described below, compounds were tested for their ability to inhibit the RNA-dependent DNA polymerase activity of HIV-1 RT. Certain specific compounds described in the Examples and in Tables 1-4, were so tested. The results of this testing appear in Table 5 as ranges of IC50 (nM) and EC50 (nM).
(§2) Reverse Transcriptase (RT) Assays

[3] = molecular target: T2, HIV-1 wild type reverse transcriptase (Human immunodeficiency virus type 1 group M subtype B, UniProt P03366); assay: biochemical
T2 construct: HIV-1 wild type reverse transcriptase
Protocol: as §1, §2

[4] = RT double mutant K103N/Y181C, read-out: IC50 K103N/Y181C
[5] = wild type RT, read-out: IC50 WT RT

Row | Compound | pEC50 [1] | pIC50 [2, 4] | pIC50 [3, 5] | EC50 [1] [nM] | pIC50 [2] | also measured
1 | CCN1c2ncc(CCOc3ccc(C(=O)Nc4cccc[n+]4[O-])cc3C)cc2C(=O)Nc2c(C)ccnc21 [Entry 3019] | > 8.00 | 7.00 to 7.30 | > 7.30 | – | – | pEC50 (HIV-1 wild type): > 8.00
2 | CCN1c2ncc(CCOc3ccc(-c4cccc(C(=O)O)c4)cc3)cc2C(=O)N(C)c2cccnc21 [Entry 1012] | 7.30 to 8.00 | < 7.00 | > 7.30 | – | – | pEC50 (HIV-1 wild type): > 8.00
3 | CCN1c2ncc(CCOc3ccc(C(=O)c4ccc(C(=O)O)cc4)cc3C)cc2C(=O)N(C)c2cccnc21 [Entry 3027] | – | – | > 7.30 | 10 to 50 | 7.00 to 7.30 | EC50 (HIV-1 wild type; Human immunodeficiency virus 1, read-out: EC50 WT RT (nM)): < 10 nM
4 | CCN1c2ncc(CCOc3ccc(-c4ccc(C(=O)O)o4)cc3C)cc2C(=O)N(C)c2cccnc21 [Entry 1046, 5-{4-[2-(11-Ethyl-6,11-dihydro-5-methyl-6-oxo-5H-dipyrido[3,2-b:2′,3′-e][1,4]diazepin-8-yl)ethoxy]-3-methylphenyl}-2-furanecarboxylic acid] | – | – | > 7.30 | > 50 | < 7.00 | pEC50 (HIV-1 wild type; Human immunodeficiency virus 1): > 8.00
5 | CCN1c2ncc(CCOc3ccc(-c4cc(CC(=O)O)ccc4OC)cc3C)cc2C(=O)N(C)c2cccnc21 [Entry 1037] | 7.30 to 8.00 | 7.00 to 7.30 | > 7.30 | – | – | –
6 | CCN1c2ncc(CCOc3ccc(C(=O)N(C)c4ccc(C(=O)O)cc4)cc3C)cc2C(=O)N(C)c2cccnc21 [Entry 3016] | – | – | > 7.30 | 10 to 50 | 7.00 to 7.30 | –
7 | CCN1c2ncc(CCOc3ccc(S(=O)(=O)c4cccc(CC(=O)O)c4)cc3C)cc2C(=O)N(C)c2cccnc21 [Entry 3029] | – | – | – | > 50 | > 7.30 | –
8 | CCN1c2ncc(CCOc3ccc(-c4ccc(CC(=O)O)cc4F)cc3C)cc2C(=O)N(C)c2cccnc21 [Entry 1024] | 7.30 to 8.00 | > 7.30 | > 7.30 | – | – | –
9 | CCN1c2ncc(CCOc3ccc(-c4ccc(CC(=O)O)cc4OC)cc3C)cc2C(=O)N(C)c2cccnc21 [Entry 1026] | 7.30 to 8.00 | > 7.30 | > 7.30 | – | – | –
10 | CCN1c2ncc(CCOc3ccc(S(=O)(=O)c4ccncc4)cc3C)cc2C(=O)N(C)c2cccnc21 [Entry 3037] | – | – | – | < 10 | > 7.30 | –
11 | CCN1c2ncc(CCOc3ccc(NC(=O)/C=C/C(=O)O)cc3C)cc2C(=O)N(C)c2cccnc21 [Entry 4010] | – | – | > 7.30 | – | 7.00 to 7.30 | pEC50 (HIV-1 wild type; Human immunodeficiency virus 1): < 7.30
12 | CCN1c2ncc(CCOc3ccc(NC(=O)NCC(=O)O)cc3C)cc2C(=O)N(C)c2cccnc21 [Entry 4004] | – | – | > 7.30 | – | < 7.00 | pEC50 (HIV-1 wild type; Human immunodeficiency virus 1): 7.30 to 8.00
13 | CCN1c2ncc(CCOc3ccc(-c4cc(CC(=O)O)ccc4C)cc3C)cc2C(=O)N(C)c2cccnc21 [Entry 1036] | 7.30 to 8.00 | 7.00 to 7.30 | > 7.30 | – | – | –
14 | CCN1c2ncc(CCOc3ccc(-c4ccc(C(=O)O)cc4)cc3)cc2C(=O)N(C)c2ccc(Cl)nc21 [Entry 1002] | – | > 7.30 | > 7.30 | – | – | pEC50 (HIV-1 wild type): > 8.00
15 | CCN1c2ncc(CCOc3ccc(-c4nccn4C)cc3C)cc2C(=O)N(C)c2cccnc21 [Entry 1097, 11-Ethyl-5,11-dihydro-5-methyl-8-{2-[2-methyl-4-(1-methyl-1H-imidazol-2-yl)phenoxy]ethyl}-6H-dipyrido[3,2-b:2′,3′-e][1,4]diazepin-6-one] | – | – | > 7.30 | 10 to 50 | 7.00 to 7.30 | –
16 | CCN1c2ncc(CCOc3ccc(-c4ccc(CC(=O)O)c(C)c4)cc3C)cc2C(=O)N(C)c2cccnc21 [Entry 1021] | 7.30 to 8.00 | > 7.30 | > 7.30 | – | – | –
17 | CCN1c2ncc(CCOc3ccc(-c4ccc(Cl)c(C(=O)O)c4)cc3C)cc2C(=O)N(C)c2cccnc21 [Entry 1032] | 7.30 to 8.00 | 7.00 to 7.30 | > 7.30 | – | – | –
18 | CCN1c2ncc(CCOc3ccc(C(=O)Nc4ccc(C(=O)O)cn4)cc3C)cc2C(=O)N(C)c2cccnc21 [Entry 3014] | – | – | – | 10 to 50 | > 7.30 | pIC50 [3]: > 7.30
19 | CCN1c2ncc(CCOc3ccc(Nc4ccccn4)cc3C)cc2C(=O)N(C)c2cccnc21 [Entry 3036] | – | – | – | < 10 | > 7.30 | –

Row | Compound | pEC50 [1] | pIC50 [2, 4] | pIC50 [3, 5] | EC50 [1] [nM] | pIC50 [2] | also measured
20 | CCN1c2ncc(CCOc3ccc(-c4ccc(C)nc4)cc3C)cc2C(=O)N(C)c2cccnc21 [Entry 1072] | > 8.00 | > 7.30 | – | – | – | –
21 | CCN1c2ncc(CCOc3ccc(Nc4nc(C(=O)O)cs4)cc3C)cc2C(=O)N(C)c2cccnc21 [Entry 3026] | – | – | – | 10 to 50 | 7.00 to 7.30 | pEC50 (HIV-1 wild type; Human immunodeficiency virus 1): > 8.00
22 | CCN1c2ncc(CCOc3ccc(C(=O)NNCC(=O)O)cc3C)cc2C(=O)N(C)c2cccnc21 [Entry 4015] | – | – | > 7.30 | – | < 7.00 | pEC50 (HIV-1 wild type; Human immunodeficiency virus 1): 7.30 to 8.00
23 | CCN1c2ncccc2NC(=O)c2cc(CCOc3ccc(-c4ccc[n+]([O-])c4)cc3C)cnc21 [Entry 1100] | 7.30 to 8.00 | – | > 7.30 | – | – | pEC50 (HIV-1 wild type): > 8.00
24 | CCN1c2ncc(CCOc3ccc(-c4ccc(CC(=O)O)cc4)cc3C)cc2C(=O)Nc2c(C)ccnc21 [Entry 1009] | – | > 7.30 | > 7.30 | – | – | pEC50 (HIV-1 wild type): 7.30 to 8.00
25 | CCN1c2ncc(CCOc3ccc(S(=O)(=O)c4ccc(C(=O)O)cc4)cc3C)cc2C(=O)N(C)c2cccnc21 [Entry 3028] | – | – | > 7.30 | > 50 | > 7.30 | –
26 | CCN1c2ncc(CCOc3ccc(-c4ccc(Cl)c(CC(=O)O)c4)cc3C)cc2C(=O)N(C)c2cccnc21 [Entry 1038] | 7.30 to 8.00 | > 7.30 | > 7.30 | – | – | –
27 | CCN1c2ncc(CCOc3ccc(C(=O)N4CCC(C(=O)O)CC4)cc3C)cc2C(=O)N(C)c2cccnc21 [Entry 3008] | – | – | > 7.30 | – | 7.00 to 7.30 | pEC50 (HIV-1 wild type; Human immunodeficiency virus 1): 7.30 to 8.00
28 | CCN1c2ncc(CCOc3ccc(-c4cc(C(=O)O)ccc4C)cc3C)cc2C(=O)N(C)c2cccnc21 [Entry 1028] | 7.30 to 8.00 | < 7.00 | > 7.30 | – | – | –
29 | CCN1c2ncc(CCOc3ccc(-c4cc[n+](C)cc4)cc3C)cc2C(=O)N(C)c2cccnc21 [Entry 1089] | > 8.00 | > 7.30 | – | – | – | –
30 | CCN1c2ncc(CCOc3ccc(-c4cccnc4)cc3C)cc2C(=O)N(C)c2cccnc21 [Entry 1067] | > 8.00 | > 7.30 | – | – | – | pIC50 ([3]; read-out: IC50 WT RT): > 7.30
31 | CCN1c2ncc(CCOc3ccc(-c4ccc(C(C)C(=O)O)cc4)cc3C)cc2C(=O)N(C)c2cccnc21 (stereo not shown) [Entry 1010] | 7.30 to 8.00 | > 7.30 | > 7.30 | – | – | –
32 | CCN1c2ncc(CCOc3ccc(Nc4ccc(C(=O)O)cn4)cc3C)cc2C(=O)N(C)c2cccnc21 [Entry 3025] | – | – | – | 10 to 50 | > 7.30 | –
33 | CCN1c2ncc(CCOc3ccc(-c4ccc(O)c(C(=O)O)c4)cc3C)cc2C(=O)N(C)c2cccnc21 [Entry 1033] | < 7.30 | 7.00 to 7.30 | > 7.30 | – | – | –
34 | CCN1c2ncc(CCOc3ccc(-c4ncc[nH]4)cc3C)cc2C(=O)N(C)c2cccnc21 [Entry 1096, 11-Ethyl-5,11-dihydro-8-{2-[4-(1H-imidazol-2-yl)-2-methylphenoxy]ethyl}-5-methyl-6H-dipyrido[3,2-b:2′,3′-e][1,4]diazepin-6-one] | – | – | > 7.30 | < 10 | > 7.30 | –
35 | CCN1c2ncc(CCOc3ccc(-c4ccc(N)nc4C)cc3C)cc2C(=O)N(C)c2cccnc21 [Entry 1081] | – | > 7.30 | > 7.30 | – | – | –
36 | CCN1c2ncc(CCOc3ccc(-c4cncnc4)cc3)cc2C(=O)N(C)c2cccnc21 [Entry 1062] | – | < 7.00 | > 7.30 | – | – | –
37 | CCN1c2ncc(CCOc3ccc(-n4ccnc4)cc3C)cc2C(=O)N(C)c2cccnc21 [Entry 1098, 11-Ethyl-5,11-dihydro-8-{2-[4-(1H-imidazol-1-yl)-2-methylphenoxy]ethyl}-5-methyl-6H-dipyrido[3,2-b:2′,3′-e][1,4]diazepin-6-one] | – | – | – | < 10 | > 7.30 | –

Source: patent US6806265B2, “Non-nucleoside reverse transcriptase inhibitors” (priority 2002, dated 2004)
